In PubChem BioAssay AID328 (DTP/NCI, 2004) one finds T/C data, which are given here for 20 molecules.

The test concerns BDF1 mice, P388 leukemia ip, median survival T/C. Description: NCI In Vivo Anticancer Drug Screen. Data for tumor model P388 Leukemia (intraperitoneal) in B6D2F1 (BDF1) mice. To be noted: endpoint: median survival time, higher = longer survival. Put shortly: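 Compound-treated tumour-bearing mice were compared with vehicle-treated controls. Survival was recorded, and the value is the treated-group measurement divided by the control-group measurement (T/C).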

The mark [1] stands for this setting: dose: 25.0 mg/kg/injection, schedule: Q01DX009 (ip), vehicle: saline.
The mark [2] stands for this setting: dose: 50.0 mg/kg/injection, schedule: Q01DX009 (ip), vehicle: saline.
Where [3] appears, read: dose: 100.0 mg/kg/injection, schedule: Q01DX009 (ip), vehicle: saline.
The mark [4] stands for this setting: dose: 1.56 mg/kg/injection, schedule: Q01DX009 (ip), vehicle: saline with Tween-80.
[5] abbreviates: dose: 3.13 mg/kg/injection, schedule: Q01DX009 (ip), vehicle: saline with Tween-80.
[6] abbreviates: dose: 6.25 mg/kg/injection, schedule: Q01DX009 (ip), vehicle: saline with Tween-80.
Where [7] appears, read: dose: 12.5 mg/kg/injection, schedule: Q01DX009 (ip), vehicle: saline with Tween-80.
Where [8] appears, read: dose: 100.0 mg/kg/injection, schedule: Q01DX009 (ip), vehicle: Klucel (hydroxypropylcellulose) (HPC).
Where [9] appears, read: dose: 100.0 mg/kg/injection, schedule: Q04DX003 (ip), vehicle: other.
The mark [10] stands for this setting: dose: 200.0 mg/kg/injection, schedule: Q01DX009 (ip), vehicle: Klucel (hydroxypropylcellulose) (HPC).
The mark [11] stands for this setting: dose: 200.0 mg/kg/injection, schedule: Q04DX003 (ip), vehicle: other.
[12] abbreviates: dose: 400.0 mg/kg/injection, schedule: Q04DX003 (ip), vehicle: other.
[13] abbreviates: dose: 100.0 mg/kg/injection, schedule: Q04DX003 (ip), vehicle: Klucel (hydroxypropylcellulose) (HPC).
The mark [14] stands for this setting: dose: 200.0 mg/kg/injection, schedule: Q04DX003 (ip), vehicle: Klucel (hydroxypropylcellulose) (HPC).
[15] abbreviates: dose: 12.5 mg/kg/injection, schedule: Q01DX009 (ip), vehicle: saline.
[16] abbreviates: dose: 25.0 mg/kg/injection, schedule: Q01DX009 (ip), vehicle: saline with Tween-80.
Where [17] appears, read: dose: 50.0 mg/kg/injection, schedule: Q01DX009 (ip), vehicle: saline with Tween-80.

Values joined by “and” are separate entries in the source; they are usually repeats but may differ in a detail not shown here. Equal entries are not always repeated. Toxic doses and inconclusive results are not listed. Residues, ends and D or L forms follow the SMILES beside them.

As to `OC1CCC(O)C1(Cl)Cl` (centres undefined), the T/C reads like this: under setting [1], 109 % of control; under setting [2], 108 % of control; under setting [3], 98 % of control.
Take `COP(=S)(NC(C)C)Oc1ccc(C)cc1[N+](=O)[O-]` (centres undefined): the T/C is 106 % of control under setting [4], 89 % of control under setting [5], 97 % of control under setting [6] and 100 % of control under setting [7].
As for `CC1NC(=O)C2CCCN2C(=O)C2CCCN2C(=O)C(C(C)C)NC(=O)C(Cc2ccccc2)NC(=O)C(Cc2ccccc2)NC(=O)C2CCCN2C(=O)C2CCCN2C(=O)C(Cc2ccccc2)NC(=O)C(Cc2ccccc2)NC1=O` (centres undefined) (cyclo(AFFPPFFVPP); configuration not given here), the T/C is, setting by setting: (dose: 0.5 mg/kg/injection, schedule: Q01DX009 (ip), vehicle: saline) 101 % of control; (dose: 1.0 mg/kg/injection, schedule: Q01DX009 (ip), vehicle: saline) 104 % of control; (dose: 2.0 mg/kg/injection, schedule: Q01DX009 (ip), vehicle: saline) 104 % of control.
As for `COc1cc(C=C2C(=O)C=CC2=O)ccc1O`, the T/C runs as follows: (dose: 0.78 mg/kg/injection, schedule: Q01DX009 (ip), vehicle: saline with Tween-80) 116 % of control; under setting [4], 104 % of control; under setting [5], 112 % of control; under setting [6], 110 % of control; under setting [7], 95 % of control.
On to `C1CC2C(CCCC23OCCO3)C2(C1)OCCO2` (centres undefined), for which the T/C is, setting by setting: (dose: 50.0 mg/kg/injection, schedule: Q01DX009 (ip), vehicle: Klucel (hydroxypropylcellulose) (HPC)) 113 % of control; under setting [8], 86 % of control; under setting [9], 100 % of control; under setting [10], 95 % of control; under setting [11], 95 % of control; under setting [12], 100 % of control.
With `NC(=O)C1=C(O)C(=O)NC1=O`, the T/C was 100 % of control (dose: 50.0 mg/kg/injection, schedule: Q04DX003 (ip), vehicle: Klucel (hydroxypropylcellulose) (HPC)); 109 % of control under setting [13]; 95 % of control under setting [14].
`Cc1ccc(C(=O)C[S+](C)C)c(C)c1`: the T/C is, setting by setting: (dose: 10.46 mg/kg/injection, schedule: Q01DX001 (ip), vehicle: saline) 109 % of control; under setting [15], 100 % of control; (dose: 20.93 mg/kg/injection, schedule: Q01DX001 (ip), vehicle: saline) 100 % of control; under setting [1], 105 % of control; (dose: 41.87 mg/kg/injection, schedule: Q01DX001 (ip), vehicle: saline) 100 % of control; under setting [2], 100 % of control. For the same molecule, the T/C is 108 % of control (dose: 56.25 mg/kg/injection, schedule: Q04DX003 (ip), vehicle: saline); 100 % of control (dose: 75.0 mg/kg/injection, schedule: Q01DX009 (ip), vehicle: saline); 95 % of control (dose: 112.5 mg/kg/injection, schedule: Q04DX003 (ip), vehicle: saline).
As for `Clc1ccc(N=C(SSC(Cl)(Cl)Cl)SSC(Cl)(Cl)Cl)cc1`, the T/C is, setting by setting: under setting [7], 116 % of control; under setting [16], 103 % of control; under setting [17], 109 % of control.
Take `Cc1cc(N(CCCl)CCCl)c(C)cc1NC(=O)c1ccccc1`: the T/C is 195 % of control under setting [7]; 190 % of control (dose: 16.5 mg/kg/injection, schedule: Q04DX003 (ip), vehicle: Klucel (hydroxypropylcellulose) (HPC)); 118 % of control (dose: 25.0 mg/kg/injection, schedule: Q04DX003 (ip), vehicle: Klucel (hydroxypropylcellulose) (HPC)); 113 % of control (dose: 37.5 mg/kg/injection, schedule: Q04DX003 (ip), vehicle: Klucel (hydroxypropylcellulose) (HPC)).
Regarding `O=C(Nc1cc(C(F)(F)F)ccc1Cl)ON1CCCCC1`, the T/C runs as follows: under setting [7], 107 % of control; under setting [16], 94 % of control; under setting [17], 114 % of control and 124 % of control; (dose: 100.0 mg/kg/injection, schedule: Q01DX009 (ip), vehicle: saline with Tween-80) 100 % of control and 102 % of control; (dose: 200.0 mg/kg/injection, schedule: Q01DX009 (ip), vehicle: saline with Tween-80) 91 % of control.
Regarding `COc1ccc2[nH]c3c(C)c4cc[n+](CCCCCCCC[n+]5ccc6c(C)c7[nH]c8ccc(OC)cc8c7c(C)c6c5)cc4c(C)c3c2c1`, the T/C (dose: 6.25 mg/kg/injection, schedule: Q04DX003 (ip), vehicle: other) was 121 % of control.
As for `CCOC(=O)C(C)(C)CCl`, the T/C runs as follows: under setting [13], 90 % of control; under setting [14], 90 % of control; (dose: 400.0 mg/kg/injection, schedule: Q04DX003 (ip), vehicle: Klucel (hydroxypropylcellulose) (HPC)) 100 % of control.
Consider `COc1ccc(CC2OCCC3c4ccccc4NC23)cc1OC` (centres undefined), for which the T/C runs as follows: (dose: 100.0 mg/kg/injection, schedule: Q04DX003 (ip), vehicle: saline with Tween-80) 93 % of control; (dose: 200.0 mg/kg/injection, schedule: Q04DX003 (ip), vehicle: saline with Tween-80) 109 % of control; (dose: 400.0 mg/kg/injection, schedule: Q04DX003 (ip), vehicle: saline with Tween-80) 111 % of control.
As for `CCCNC(=O)NO`, the T/C is, setting by setting: under setting [8], 119 % of control; under setting [9], 87 % of control; under setting [10], 104 % of control; under setting [11], 104 % of control; (dose: 400.0 mg/kg/injection, schedule: Q01DX009 (ip), vehicle: Klucel (hydroxypropylcellulose) (HPC)) 114 % of control; under setting [12], 104 % of control.
On to `NC1C=CC(CCC(N)C(=O)O)C=C1` (centres undefined), for which the T/C is, setting by setting: under setting [15], 100 % of control; under setting [1], 100 % of control and 105 % of control; under setting [2], 100 % of control; under setting [3], 110 % of control.
In the case of `CC(C)(C)COC(=O)CCN1CC1`, the T/C runs as follows: (dose: 2.5 mg/kg/injection, schedule: Q01DX009 (ip), vehicle: Klucel (hydroxypropylcellulose) (HPC)) 116 % of control; (dose: 5.0 mg/kg/injection, schedule: Q01DX009 (ip), vehicle: Klucel (hydroxypropylcellulose) (HPC)) 111 % of control; (dose: 10.0 mg/kg/injection, schedule: Q01DX009 (ip), vehicle: Klucel (hydroxypropylcellulose) (HPC)) 122 % of control; (dose: 20.0 mg/kg/injection, schedule: Q01DX009 (ip), vehicle: Klucel (hydroxypropylcellulose) (HPC)) 100 % of control; (dose: 20.0 mg/kg/injection, schedule: Q04DX003 (ip), vehicle: Klucel (hydroxypropylcellulose) (HPC)) 95 % of control; (dose: 40.0 mg/kg/injection, schedule: Q04DX003 (ip), vehicle: Klucel (hydroxypropylcellulose) (HPC)) 100 % of control. The T/C (dose: 80.0 mg/kg/injection, schedule: Q04DX003 (ip), vehicle: Klucel (hydroxypropylcellulose) (HPC)) was 109 % of control.
For the molecule `N#CCCCCCl`, the T/C was 90 % of control (dose: 25.0 mg/kg/injection, schedule: Q01DX001 (ip), vehicle: saline); 100 % of control (dose: 50.0 mg/kg/injection, schedule: Q01DX001 (ip), vehicle: saline); 95 % of control and 100 % of control (dose: 100.0 mg/kg/injection, schedule: Q01DX001 (ip), vehicle: saline).
`CC(C)CCCCCCCCCCCCC(=O)NCC(=O)NC1C(C)OC(Nc2ncnc3nc[nH]c23)C(O)C1O` (centres undefined): the T/C (dose: 432.0 micrograms/kg/injection, schedule: Q04DX003 (ip), vehicle: saline) was 110 % of control.
As to `N#CC(c1ccccc1)C1CCCCC1` (centres undefined), the T/C runs as follows: (dose: 75.0 mg/kg/injection, schedule: Q04DX003 (ip), vehicle: saline) 111 % of control; (dose: 150.0 mg/kg/injection, schedule: Q04DX003 (ip), vehicle: saline) 107 % of control; (dose: 300.0 mg/kg/injection, schedule: Q04DX003 (ip), vehicle: saline) 115 % of control.
Turning to `CC1=CC(c2ccccc2)=CC(C)(C)C1` (tested in a mixture with another compound), the T/C is 104 % of control (dose: 25.0 mg/kg/injection, schedule: Q01DX009 (ip), vehicle: saline sonified); 109 % of control (dose: 50.0 mg/kg/injection, schedule: Q01DX009 (ip), vehicle: saline sonified); 109 % of control (dose: 100.0 mg/kg/injection, schedule: Q01DX009 (ip), vehicle: saline sonified).
